Laboratory results from PubChem BioAssay (NCI).
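1) Cells in 96-well plates. 2) Compound, 48 h, 5 concentrations. 3) Linear interpolation between surrounding doses. 4) Unreached endpoint = highest concentration. GI50 is the concentration that inhibits growth by half. TGI marks complete inhibition of growth.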

Experiments:
Experiment in all cases: inhibition of tumour cell growth, NCI panel, 48 h
786-0 renal = test system: 786-0 renal
SN12C renal = test system: SN12C renal
HCT-116 colon = test system: HCT-116 colon
SR leukemia = test system: SR leukemia
RPMI-8226 leukemia = test system: RPMI-8226 leukemia
U251 CNS = test system: U251 CNS
PC-3 prostate = test system: PC-3 prostate
MDA-MB-435 = test system: MDA-MB-435
DMS 114 small cell lung = test system: DMS 114 small cell lung
SNB-78 CNS = test system: SNB-78 CNS

SMILES	GI50 (786-0 renal) [µM]	TGI (786-0 renal) [µM]	GI50 (SN12C renal) [µM]	TGI (SN12C renal) [µM]	GI50 (HCT-116 colon) [µM]	TGI (HCT-116 colon) [µM]	GI50 (SR leukemia) [µM]	TGI (SR leukemia) [µM]	GI50 (RPMI-8226 leukemia) [µM]	TGI (RPMI-8226 leukemia) [µM]	GI50 (U251 CNS) [µM]	TGI (U251 CNS) [µM]	GI50 (PC-3 prostate) [µM]	TGI (PC-3 prostate) [µM]	GI50 (MDA-MB-435) [µM]	TGI (MDA-MB-435) [µM]	TGI (DMS 114 small cell lung) [µM]	TGI (SNB-78 CNS) [µM]
CC(C)(O)CS(=O)(=O)Nc1ccc2c(c1)CCN(C(=O)COc1cccnc1)C2	> 100	> 100	0.0677	> 100	0.0311	> 100	> 45.7	> 100	0.799	> 100	> 62.7	> 100	1.06	> 100	0.518	> 100	–	–
C=C(CN1C(=O)[C@H]2CCCN2C(=O)c2ccccc21)c1ccc(C(=O)O)cc1	> 100	> 100	> 100	> 100	> 100	> 100	> 100	> 100	> 100	> 100	> 100	> 100	> 100	> 100	> 100	> 100	–	–
O=c1cc2ccccc2nn1Cc1cccc(Cl)c1	–	> 100	–	> 100	–	> 100	–	–	–	> 100	–	> 100	–	–	–	–	> 100	> 100
C[S+](C)CCOC(=O)C(=[N+]=[N-])c1ccc([N+](=O)[O-])cc1	–	> 100	–	> 100	–	> 100	–	–	–	> 100	–	> 100	–	–	–	–	> 100	> 100
COc1c(OC)c(OC)c2c(c1OC)c(=O)c1ccccc1n2C	–	> 100	–	> 100	–	> 100	–	> 100	–	> 100	–	> 100	–	> 100	–	> 100	–	–
CC(C)c1ccc(C2C3=C(N=C4SCC(=O)N42)C(=O)c2ccccc23)cc1 (stereo not drawn)	–	> 100	–	> 100	–	> 100	–	–	–	> 100	–	> 100	–	–	–	–	> 100	–
O=C(Nc1cc(Cl)cc(Cl)c1)c1ccc(NC2=C(Cl)C(=O)N(Cc3ccc(Cl)cc3Cl)C2=O)cc1	3.41	35.1	24.9	60.6	4.06	16.9	0.0622	0.238	2.53	10.9	16.8	51.6	13.1	25.8	25	57.9	–	–
c1ccc2[nH]c(-c3ccc(NN=Nc4ccncc4)cc3)nc2c1	99.9	> 100	> 100	> 100	26.3	> 100	47.7	> 100	6.3	38.4	27.2	> 100	33	> 100	30.7	> 100	–	–
COc1ccc(/C=C/C(=O)c2ccc(SC)cc2)cc1OC	12.5	26.6	13	26.5	2.65	10.1	3.06	42.9	4.02	21.2	3.53	13.8	11.5	25.6	3.44	13.4	–	–
